Experimental data reported in ChEMBL document CHEMBL5120927, “LEGO-Lipophosphonoxins: A Novel Approach in Designing Membrane Targeting Antimicrobials” (J Med Chem, 2022).

Tested on: not listed separately
Test: Gradient chromatographic hydrophobicity index of the compound at pH 3.7 by HPLC analysis
Assay type: ADME
Settings: not given
For `CCC/C=C\CCOP(=O)(CCN(CCCN)CCCN)OCCCCCCCCOP(=O)(CCN(CCCN)CCCN)OCC/C=C\CCC.Cl.Cl.Cl.Cl.Cl.Cl` (centres undefined), the CHI was 32.8.
`Cl.Cl.Cl.Cl.Cl.Cl.NCCCN(CCCN)CCP(=O)(OCCCCCCOP(=O)(CCN(CCCN)CCCN)OCCC12CC3CC(CC(C3)C1)C2)OCCC12CC3CC(CC(C3)C1)C2` (centres undefined) showed a CHI of 38.4.
In the case of `CCCCCCCCOP(=O)(CCN(CCCN)CCCN)OCCCCCCCCOP(=O)(CCN(CCCN)CCCN)OCCCCCCCC.Cl.Cl.Cl.Cl.Cl.Cl` (centres undefined), the CHI is reported as 38.7.

Tested on: Staphylococcus aureus
Test: Antibacterial activity against Staphylococcus aureus ATCC 29213 = CCM 4223 assessed as inhibition of bacterial growth incubated for 24 hrs in presence of BSA by microdilution assay
Assay type: functional
Settings: not given
For `CCC/C=C\CCOP(=O)(CCN(CCCN)CCCN)OCCCCCCCCOP(=O)(CCN(CCCN)CCCN)OCC/C=C\CCC.Cl.Cl.Cl.Cl.Cl.Cl` (centres undefined), the MIC was 8 µg/mL.
`Cl.Cl.Cl.Cl.Cl.Cl.NCCCN(CCCN)CCP(=O)(OCCCCCCOP(=O)(CCN(CCCN)CCCN)OCCC12CC3CC(CC(C3)C1)C2)OCCC12CC3CC(CC(C3)C1)C2` (centres undefined) gave an MIC of 0.2 µg/mL.
For `CCCCCCCCOP(=O)(CCN(CCCN)CCCN)OCCCCCCCCOP(=O)(CCN(CCCN)CCCN)OCCCCCCCC.Cl.Cl.Cl.Cl.Cl.Cl` (centres undefined), the MIC was 0.25 µg/mL.

Tested on: Enterococcus faecium
Test: Antibacterial activity against vancomycin resistant Enterococcus faecium 419/ANA assessed as reduction in microbial growth incubated for 24 hrs by microdilution assay
Assay type: functional
Settings: not given
In the case of `CCC/C=C\CCOP(=O)(CCN(CCCN)CCCN)OCCCCCCCCOP(=O)(CCN(CCCN)CCCN)OCC/C=C\CCC.Cl.Cl.Cl.Cl.Cl.Cl` (centres undefined), the MIC is reported as greater than 128 µg/mL.
`Cl.Cl.Cl.Cl.Cl.Cl.NCCCN(CCCN)CCP(=O)(OCCCCCCOP(=O)(CCN(CCCN)CCCN)OCCC12CC3CC(CC(C3)C1)C2)OCCC12CC3CC(CC(C3)C1)C2` (centres undefined) gave an MIC of 2 µg/mL.
Work on `CCCCCCCCOP(=O)(CCN(CCCN)CCCN)OCCCCCCCCOP(=O)(CCN(CCCN)CCCN)OCCCCCCCC.Cl.Cl.Cl.Cl.Cl.Cl` (centres undefined) yielded an MIC of 4 µg/mL.

Tested on: Pseudomonas aeruginosa
Test: Antibacterial activity against multidrug-resistant Pseudomonas aeruginosa assessed as reduction in microbial growth incubated for 24 hrs by microdilution assay
Assay type: functional
Settings: not given
With `CCC/C=C\CCOP(=O)(CCN(CCCN)CCCN)OCCCCCCCCOP(=O)(CCN(CCCN)CCCN)OCC/C=C\CCC.Cl.Cl.Cl.Cl.Cl.Cl` (centres undefined) the MIC was 128 µg/mL.
Work on `Cl.Cl.Cl.Cl.Cl.Cl.NCCCN(CCCN)CCP(=O)(OCCCCCCOP(=O)(CCN(CCCN)CCCN)OCCC12CC3CC(CC(C3)C1)C2)OCCC12CC3CC(CC(C3)C1)C2` (centres undefined) yielded an MIC of 2 µg/mL.
For `CCCCCCCCOP(=O)(CCN(CCCN)CCCN)OCCCCCCCCOP(=O)(CCN(CCCN)CCCN)OCCCCCCCC.Cl.Cl.Cl.Cl.Cl.Cl` (centres undefined), the MIC was 2 µg/mL.

Tested on: Escherichia coli
Test: Antibacterial activity against Escherichia coli ATCC 25922 = CCM 3954 assessed as inhibition of bacterial growth incubated for 24 hrs in presence of BSA by microdilution assay
Assay type: functional
Settings: not given
Molecule `CCC/C=C\CCOP(=O)(CCN(CCCN)CCCN)OCCCCCCCCOP(=O)(CCN(CCCN)CCCN)OCC/C=C\CCC.Cl.Cl.Cl.Cl.Cl.Cl` (centres undefined) has an MIC of 64 µg/mL.
`Cl.Cl.Cl.Cl.Cl.Cl.NCCCN(CCCN)CCP(=O)(OCCCCCCOP(=O)(CCN(CCCN)CCCN)OCCC12CC3CC(CC(C3)C1)C2)OCCC12CC3CC(CC(C3)C1)C2` (centres undefined) gave an MIC of 1 µg/mL.
In the case of `CCCCCCCCOP(=O)(CCN(CCCN)CCCN)OCCCCCCCCOP(=O)(CCN(CCCN)CCCN)OCCCCCCCC.Cl.Cl.Cl.Cl.Cl.Cl` (centres undefined), the MIC is reported as 0.5 µg/mL.

Tested on: Enterococcus faecalis
Test: Antibacterial activity against Enterococcus faecalis ATCC 29212 = CCM 4224 assessed as inhibition of bacterial growth incubated for 24 hrs by microdilution assay
Assay type: functional
Settings: not given
`CCC/C=C\CCOP(=O)(CCN(CCCN)CCCN)OCCCCCCCCOP(=O)(CCN(CCCN)CCCN)OCC/C=C\CCC.Cl.Cl.Cl.Cl.Cl.Cl` (centres undefined) showed an MIC of 64 µg/mL.
For `Cl.Cl.Cl.Cl.Cl.Cl.NCCCN(CCCN)CCP(=O)(OCCCCCCOP(=O)(CCN(CCCN)CCCN)OCCC12CC3CC(CC(C3)C1)C2)OCCC12CC3CC(CC(C3)C1)C2` (centres undefined), the MIC was 1 µg/mL.
For `CCCCCCCCOP(=O)(CCN(CCCN)CCCN)OCCCCCCCCOP(=O)(CCN(CCCN)CCCN)OCCCCCCCC.Cl.Cl.Cl.Cl.Cl.Cl` (centres undefined), the MIC was 1 µg/mL.

Tested on: Staphylococcus epidermidis
Test: Antibacterial activity against Staphylococcus epidermidis CCM 7221 assessed as inhibition of bacterial growth incubated for 24 hrs by microdilution assay
Assay type: functional
Settings: not given
For `CCC/C=C\CCOP(=O)(CCN(CCCN)CCCN)OCCCCCCCCOP(=O)(CCN(CCCN)CCCN)OCC/C=C\CCC.Cl.Cl.Cl.Cl.Cl.Cl` (centres undefined), the MIC was 2 µg/mL.
`Cl.Cl.Cl.Cl.Cl.Cl.NCCCN(CCCN)CCP(=O)(OCCCCCCOP(=O)(CCN(CCCN)CCCN)OCCC12CC3CC(CC(C3)C1)C2)OCCC12CC3CC(CC(C3)C1)C2` (centres undefined) showed an MIC of 0.5 µg/mL.
Molecule `CCCCCCCCOP(=O)(CCN(CCCN)CCCN)OCCCCCCCCOP(=O)(CCN(CCCN)CCCN)OCCCCCCCC.Cl.Cl.Cl.Cl.Cl.Cl` (centres undefined) has an MIC of 3 µg/mL.

Tested on: Staphylococcus aureus
Test: Antibacterial activity against Staphylococcus aureus ATCC 29213 = CCM 4223 assessed as inhibition of bacterial growth incubated for 24 hrs by microdilution assay
Assay type: functional
Settings: not given
With `CCC/C=C\CCOP(=O)(CCN(CCCN)CCCN)OCCCCCCCCOP(=O)(CCN(CCCN)CCCN)OCC/C=C\CCC.Cl.Cl.Cl.Cl.Cl.Cl` (centres undefined) the MIC was 8 µg/mL.
`Cl.Cl.Cl.Cl.Cl.Cl.NCCCN(CCCN)CCP(=O)(OCCCCCCOP(=O)(CCN(CCCN)CCCN)OCCC12CC3CC(CC(C3)C1)C2)OCCC12CC3CC(CC(C3)C1)C2` (centres undefined) showed an MIC of 0.5 µg/mL.
`CCCCCCCCOP(=O)(CCN(CCCN)CCCN)OCCCCCCCCOP(=O)(CCN(CCCN)CCCN)OCCCCCCCC.Cl.Cl.Cl.Cl.Cl.Cl` (centres undefined) showed an MIC of 0.5 µg/mL.

Tested on: Escherichia coli
Test: Antibacterial activity against multidrug-resistant Escherichia coli CE5556 expressing CTX-M-15 assessed as reduction in microbial growth incubated for 24 hrs by microdilution assay
Assay type: functional
Settings: not given
`CCC/C=C\CCOP(=O)(CCN(CCCN)CCCN)OCCCCCCCCOP(=O)(CCN(CCCN)CCCN)OCC/C=C\CCC.Cl.Cl.Cl.Cl.Cl.Cl` (centres undefined) gave an MIC of 16 µg/mL.
With `Cl.Cl.Cl.Cl.Cl.Cl.NCCCN(CCCN)CCP(=O)(OCCCCCCOP(=O)(CCN(CCCN)CCCN)OCCC12CC3CC(CC(C3)C1)C2)OCCC12CC3CC(CC(C3)C1)C2` (centres undefined) the MIC was 1 µg/mL.
Molecule `CCCCCCCCOP(=O)(CCN(CCCN)CCCN)OCCCCCCCCOP(=O)(CCN(CCCN)CCCN)OCCCCCCCC.Cl.Cl.Cl.Cl.Cl.Cl` (centres undefined) has an MIC of 1 µg/mL.

Tested on: not listed separately
Test: Hemolytic activity in human RBC assessed as haemoglobin release measured after 3 hr
Assay type: toxicity, cell-based, Erythrocyte
Settings: red blood cells (erythrocytes)
For `CCC/C=C\CCOP(=O)(CCN(CCCN)CCCN)OCCCCCCCCOP(=O)(CCN(CCCN)CCCN)OCC/C=C\CCC.Cl.Cl.Cl.Cl.Cl.Cl` (centres undefined), the HC50 at 3 h was greater than 200 µg/mL.
Molecule `Cl.Cl.Cl.Cl.Cl.Cl.NCCCN(CCCN)CCP(=O)(OCCCCCCOP(=O)(CCN(CCCN)CCCN)OCCC12CC3CC(CC(C3)C1)C2)OCCC12CC3CC(CC(C3)C1)C2` (centres undefined) has an HC50 at 3 h of 72.2 µg/mL.
With `CCCCCCCCOP(=O)(CCN(CCCN)CCCN)OCCCCCCCCOP(=O)(CCN(CCCN)CCCN)OCCCCCCCC.Cl.Cl.Cl.Cl.Cl.Cl` (centres undefined) the HC50 at 3 h was 683 µg/mL.

Tested on: Escherichia coli
Test: Antibacterial activity against Escherichia coli ATCC 25922 = CCM 3954 assessed as inhibition of bacterial growth incubated for 24 hrs by microdilution assay
Assay type: functional
Settings: not given
`CCC/C=C\CCOP(=O)(CCN(CCCN)CCCN)OCCCCCCCCOP(=O)(CCN(CCCN)CCCN)OCC/C=C\CCC.Cl.Cl.Cl.Cl.Cl.Cl` (centres undefined) showed an MIC of 1 µg/mL.
`Cl.Cl.Cl.Cl.Cl.Cl.NCCCN(CCCN)CCP(=O)(OCCCCCCOP(=O)(CCN(CCCN)CCCN)OCCC12CC3CC(CC(C3)C1)C2)OCCC12CC3CC(CC(C3)C1)C2` (centres undefined) showed an MIC greater than 128 µg/mL.
`CCCCCCCCOP(=O)(CCN(CCCN)CCCN)OCCCCCCCCOP(=O)(CCN(CCCN)CCCN)OCCCCCCCC.Cl.Cl.Cl.Cl.Cl.Cl` (centres undefined) showed an MIC of 1 µg/mL.

Tested on: Staphylococcus aureus
Test: Antibacterial activity against methicillin resistant Staphylococcus aureus 4591/A assessed as reduction in microbial growth incubated for 24 hrs by microdilution assay
Assay type: functional
Settings: not given
Work on `CCC/C=C\CCOP(=O)(CCN(CCCN)CCCN)OCCCCCCCCOP(=O)(CCN(CCCN)CCCN)OCC/C=C\CCC.Cl.Cl.Cl.Cl.Cl.Cl` (centres undefined) yielded an MIC of 4 µg/mL.
In the case of `Cl.Cl.Cl.Cl.Cl.Cl.NCCCN(CCCN)CCP(=O)(OCCCCCCOP(=O)(CCN(CCCN)CCCN)OCCC12CC3CC(CC(C3)C1)C2)OCCC12CC3CC(CC(C3)C1)C2` (centres undefined), the MIC is reported as 0.5 µg/mL.
Molecule `CCCCCCCCOP(=O)(CCN(CCCN)CCCN)OCCCCCCCCOP(=O)(CCN(CCCN)CCCN)OCCCCCCCC.Cl.Cl.Cl.Cl.Cl.Cl` (centres undefined) has an MIC of 5 µg/mL.

Tested on: Pseudomonas aeruginosa
Test: Antibacterial activity against Pseudomonas aeruginosa ATCC 27853 = CCM 3955 assessed as inhibition of bacterial growth incubated for 24 hrs by microdilution assay
Assay type: functional
Settings: not given
`CCC/C=C\CCOP(=O)(CCN(CCCN)CCCN)OCCCCCCCCOP(=O)(CCN(CCCN)CCCN)OCC/C=C\CCC.Cl.Cl.Cl.Cl.Cl.Cl` (centres undefined) gave an MIC of 128 µg/mL.
For `Cl.Cl.Cl.Cl.Cl.Cl.NCCCN(CCCN)CCP(=O)(OCCCCCCOP(=O)(CCN(CCCN)CCCN)OCCC12CC3CC(CC(C3)C1)C2)OCCC12CC3CC(CC(C3)C1)C2` (centres undefined), the MIC was 1 µg/mL.
`CCCCCCCCOP(=O)(CCN(CCCN)CCCN)OCCCCCCCCOP(=O)(CCN(CCCN)CCCN)OCCCCCCCC.Cl.Cl.Cl.Cl.Cl.Cl` (centres undefined) showed an MIC of 2 µg/mL.
